The results in this text go back to patent publication US12441704B2, “Compounds active towards nuclear receptors” (NUEVOLUTION A/S, priority 2019, dated 2025).

The EC50 is the concentration at which the effect is half-maximal.

The first test deals with T1, RORγ ligand-binding domain fused to Gal4 (Homo sapiens, UniProt P51449).
T1 construct: Gal4 (galactose-responsive transcription factor); expressed in transfected cells; host or cells: HEK293
T1 sequence (P51449 269-508 limits assumed): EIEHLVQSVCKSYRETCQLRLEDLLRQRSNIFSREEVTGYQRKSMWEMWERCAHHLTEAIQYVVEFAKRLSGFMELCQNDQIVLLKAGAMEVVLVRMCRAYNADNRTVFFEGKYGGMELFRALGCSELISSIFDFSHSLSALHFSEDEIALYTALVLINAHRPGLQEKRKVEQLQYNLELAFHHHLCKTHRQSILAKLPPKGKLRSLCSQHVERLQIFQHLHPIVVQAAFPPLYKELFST
The test is described as follows: RORγ Reporter Assay (Gal4). The following applies: HEK293 cells co-transfected with RORγ LBD-Gal4 and luciferase reporter; 24 h incubation; absolute EC50; read-out: EC50. The test is classed as cell-based. Here is the method:
The HEK293 cell line is co-transfected transiently with two plasmids, one with the RORγ ligand-binding domain fused to galactose-responsive transcription factor (Gal4), and the other with the luciferase reporter gene and Gal binding sites (UAS). This construction allows to determine the RORγ activity in a cellular system through the measurement of luminescence.
A suspension of RORγ reporter cells was dispensed into plates and cultured 2 h at 37° C. and 5% CO2. Media formulation consisted in DMEM/F-12 medium (Gibco) supplemented with 10% heat inactivated FBS (Sigma-Aldrich), non-essential aminoacids (Sigma-Aldrich), 2 mM Glutamax (Gibco) and 100 U/mL penicillin (Sigma-Aldrich). Dose-response curves with compounds were prepared in 100% DMSO and further diluted 100-fold in culture medium. Compound solutions were added to the plate containing cells (final DMSO concentration of 0.1%) and incubated for 24 h at 37° C. and 5% CO2. Luciferase detection reagent was added to each well, and relative light units (RLUs) were quantified from each assay well using a plate reading luminometer.
Values of average RLU±S.D. were computed for all treatment sets, followed by the calculations of percent-reduction of RORγ activity in response to respective test compound. The following formula was used: activity=100*[1−[x test compound/average vehicle] where the theoretical minimum reduction (0% reduction).
A general note: In a reporter assay the amount or activity of a reporter protein is the signal.
Consider `CCN(Cc1ccc(C(F)(F)CO)cc1)c1ncnc(NC[C@@H]2CCN(CC(N)=O)C[C@H]2O)c1F` (racemic) [Example A7-79, rac-2-((3R,4R)-4-(((6-((4-(1,1-difluoro-2-hydroxyethyl)benzyl)(ethyl)amino)-5-fluoropyrimidin-4-yl)amino)methyl)-3-hydroxypiperidin-1-yl)acetamide], for which the half-maximal effective concentration (EC50) came to 164 nM.

As for `NC(=O)CN1CCC(CNc2ncnc(N(Cc3ccc(C(F)(F)F)cc3)C3CC3)c2F)(c2ncc[nH]2)CC1` [Example A7-84, 2-(4-(((6-(Cyclopropyl(4-(trifluoromethyl)benzyl)amino)-5-fluoropyrimidin-4-yl)amino)methyl)-4-(1H-imidazol-2-yl)piperidin-1-yl)acetamide], the EC50 was determined as 301 nM.

`NC(=O)CN1CC[C@@H](CNc2ncnc(N(Cc3ccc(C(F)(F)F)cn3)C3CCC3)c2F)[C@H](O)C1` (racemic) [Example A7-24, rac-2-((3R,4R)-4-(((6-(cyclobutyl((5-(trifluoromethyl)pyridin-2-yl)methyl)amino)-5-fluoropyrimidin-4-yl)amino)methyl)-3-hydroxypiperidin-1-yl)acetamide]: the EC50 came to 120 nM.

As to `CC(F)(F)c1ccc(CN(c2ncnc(NC[C@H]3CCN(CC(N)=O)C[C@@H]3O)c2F)C2CC2)cn1` (relative stereo) [Example A7-29-2, rel-2-((3R,4R)-4-(((6-(cyclopropyl((6-(1,1-difluoroethyl)pyridin-3-yl)methyl)amino)-5-fluoropyrimidin-4-yl)amino)methyl)-3-hydroxypiperidin-1-yl)acetamide], the EC50 was determined as 70 nM.

On to `CCN(Cc1ccc(-c2cnn(C)c2)cc1)c1ncnc(NC[C@@H]2CCN(CC(N)=O)C[C@H]2O)c1F` (racemic) [Example A7-72, rac-2-((3R,4R)-4-(((6-(ethyl(4-(1-methyl-1H-pyrazol-4-yl)benzyl)amino)-5-fluoropyrimidin-4-yl)amino)methyl)-3-hydroxypiperidin-1-yl)acetamide], for which the EC50 was found to be 52 nM.

With `Cc1cc(CN(c2ncnc(NCC3CCN(CC(N)=O)CC3)c2F)C2CC2)cc(C)c1Cl` [Example A7-53, 2-(4-(((6-((4-chloro-3,5-dimethylbenzyl)(cyclopropyl)amino)-5-fluoropyrimidin-4-yl)amino)methyl)piperidin-1-yl)acetamide], the EC50 is greater than 1000 nM.

For the molecule `CCN(Cc1ccc(C(F)(F)F)cc1)c1ncnc(NC[C@H]2CCN(CC(N)=O)C[C@@H]2O)c1F` (single isomer, unassigned) [Example A7-21-2], the EC50 came to 13 nM.

In the case of `NC(=O)C(C1CCOCC1)N1CC[C@@H](CNc2ncnc(N(Cc3ccc(C(F)(F)F)cc3)C3CC3)c2F)[C@H](O)C1` (mixture of isomers) [Example A7-71, rac-2-((3R,4R)-4-(((6-(Cyclopropyl(4-(trifluoromethyl)benzyl)amino)-5-fluoropyrimidin-4-yl)amino)methyl)-3-hydroxypiperidin-1-yl)-2-(tetrahydro-2H-pyran-4-yl)acetamide], the EC50 came to 3.9 nM.

In the case of `NC(=O)CN1CCC(F)(CNc2ncnc(N(Cc3ccc4c(c3)OCC(=O)N4)C3CC3)c2F)CC1` [Example A7-12], the concentration for a half-maximal effect (EC50) is 150 nM.

For `NC(=O)CN1CC[C@@H](CNc2ncnc(N(Cc3ccc(OC(F)F)cc3F)C3CCC3)c2F)[C@H](O)C1` (stereo in doubt) [Example A7-15, rac-2-((3R,4R)-4-(((6-(cyclobutyl(4-(difluoromethoxy)-2-fluorobenzyl)amino)-5-fluoropyrimidin-4-yl)amino)methyl)-3-hydroxypiperidin-1-yl)acetamide], the EC50 was found to be 160 nM.

Turning to `NC(=O)CN1CCC(C(CO)Nc2ncnc(N(Cc3ccc(C(F)(F)F)cc3)C3CC3)c2F)CC1` (centres unmarked) [Example A7-87, 2-(4-(1-((6-(cyclopropyl(4-(trifluoromethyl)benzyl)amino)-5-fluoropyrimidin-4-yl)amino)-2-hydroxyethyl)piperidin-1-yl)acetamide], the EC50 worked out at 181 nM.

Regarding `CN(Cc1ccc(C(F)(F)F)cc1)c1ncnc(NC[C@H]2CCN(CC(N)=O)C[C@@H]2O)c1F` (racemic) [Example A7-20, rac-2-((3R,4R)-4-(((5-fluoro-6-(methyl(4-(trifluoromethyl)benzyl)amino)pyrimidin-4-yl)amino)methyl)-3-hydroxypiperidin-1-yl)acetamide], the EC50 came to 26 nM.

Consider `NC(=O)CN1CCC(N)(CNc2ncnc(N(Cc3ccc(C(F)(F)F)cc3)C3CC3)c2F)CC1` [Example E6-1, 2-(4-Amino-4-(((6-(cyclopropyl(4-(trifluoromethyl)benzyl)amino)-5-fluoropyrimidin-4-yl)amino)methyl)piperidin-1-yl)acetamide], for which the EC50 worked out at 150 nM.

As to `CC1CC(CNc2ncnc(N(Cc3ccc(C(F)(F)F)cc3)C3CC3)c2F)CCN1CC(N)=O` (centres unmarked) [Example A7-48], the EC50 is 17 nM.

As to `Cn1cnnc1C1(CNc2ncnc(N(Cc3ccc(C(F)(F)F)cc3)C3CC3)c2F)CCN(CC(N)=O)CC1` [Example A7-83, 2-(4-(((6-(Cyclopropyl(4-(trifluoromethyl)benzyl)amino)-5-fluoropyrimidin-4-yl)amino)methyl)-4-(4-methyl-4H-1,2,4-triazol-3-yl)piperidin-1-yl)acetamide], the EC50 was greater than 1000 nM.

For the molecule `CCN(Cc1ccc(C(F)(F)F)cc1F)c1ncnc(NC[C@]2(O)CCN(CC(N)=O)C[C@H]2O)c1F` (single isomer, unassigned) [Example D5-03-1-2], the EC50 was 9.3 nM.

In the case of `NC(=O)CN1CC[C@H](CNc2ncnc(N(Cc3cnc(C(F)(F)F)nc3)C3CCC3)c2F)[C@@H](O)C1` (single isomer, unassigned) [Example A7-18-1], the EC50 was 140 nM.

For `N#Cc1cccc(CN(c2ncnc(NCC3CCN(CC(N)=O)CC3)c2F)C2CC2)c1` [Example A7-36, 2-(4-(((6-((3-cyanobenzyl)(cyclopropyl)amino)-5-fluoropyrimidin-4-yl)amino)methyl)piperidin-1-yl)acetamide], the concentration for a half-maximal effect (EC50) turned out to be 860 nM.

With `NC(=O)CN1CC[C@H](CNc2ncnc(N(Cc3ccc(OC(F)F)cc3F)C3CCC3)c2F)[C@@H](O)C1` (stereo in doubt) [Example A7-15-2, rel-2-((3R,4R)-4-(((6-(cyclobutyl(4-(difluoromethoxy)-2-fluorobenzyl)amino)-5-fluoropyrimidin-4-yl)amino)methyl)-3-hydroxypiperidin-1-yl)acetamide], the EC50 is 310 nM.

On to `CN(Cc1ccc(C(F)(F)F)cc1)c1ncnc(NC[C@H]2CCN(CC(N)=O)C[C@@H]2O)c1F` (single isomer, unassigned) [Example A7-20-2], for which the EC50 is 32 nM.

In the case of `NC(=O)CN1CC[C@@H](CNc2ncnc(N(Cc3ccc(C(F)(F)F)nc3)C3CCC3)c2F)[C@H](O)C1` (single isomer, unassigned) [Example A7-23-1], the EC50 is 81 nM.

On to `NC(=O)CN1CC[C@H](CNc2ncnc(N(Cc3ccc(C(F)(F)F)cc3F)C3CC3)c2F)[C@@H](O)C1` (racemic) [Example A7-22, rac-2-((3R,4R)-4-(((6-(cyclopropyl(2-fluoro-4-(trifluoromethyl)benzyl)amino)-5-fluoropyrimidin-4-yl)amino)methyl)-3-hydroxypiperidin-1-yl)acetamide], for which the EC50 was found to be 4 nM.

In the case of `Cc1cc(CN(c2ncnc(NCC3CCN(CC(N)=O)CC3)c2F)C2CC2)c(C)cc1Cl` [Example A7-46, 2-(4-(((6-((4-chloro-2,5-dimethylbenzyl)(cyclopropyl)amino)-5-fluoropyrimidin-4-yl)amino)methyl)piperidin-1-yl)acetamide], the EC50 was greater than 1000 nM.

Consider `CN(Cc1ccc(C(F)(F)F)cc1)c1ncnc(NC[C@H]2CCN(CC(N)=O)C[C@@H]2O)c1F` (single isomer, unassigned) [Example A7-20-1], for which the EC50 came out at 35 nM.

Take `NC(=O)CN1CC[C@H](CNc2ncnc(N(Cc3ccc(C(F)(F)F)cc3)C3CC3)c2F)[C@@H](F)C1` (relative stereo) [Example A7-05-2, rel-2-((3R,4R)-4-(((6-(cyclopropyl(4-(trifluoromethyl)benzyl)amino)-5-fluoropyrimidin-4-yl)amino)methyl)-3-fluoropiperidin-1-yl)acetamide]: the EC50 turned out to be 14 nM.

Still in this test, the particulars now being: compounds of the present disclosure; source: Table 2 herein; read-out: Gal4 assay EC50.
`NC(=O)CN1CCC(CO)(CNc2ncnc(N(Cc3ccc(C(F)(F)F)cc3)C3CC3)c2F)C(O)C1` (single isomer, unassigned) [Example C4-1-2, 2-(4-(((6-(Cyclopropyl(4-(trifluoromethyl)benzyl)amino)-5-fluoropyrimidin-4-yl)amino)methyl)-3-hydroxy-4-(hydroxymethyl)piperidin-1-yl)acetamide]: the EC50 was less than 100 nM.
